Experiments:
Assay type in all cases: in vivo
[1] = test system: Triticum aestivum variety “Monopol”; test: Pre-emergence test, selectivity; details: 3 weeks after treatment, rating 0-100 (100=death), Table 4
Description: (§1) The pre-emergence tests involve spraying a liquid formulation of the compound onto the soil in which the seeds of the plant species mentioned above has recently been sown.
(§2) The soil used in the tests is a prepared horticultural loam. The formulations used in the tests are prepared from solutions of the test compounds in acetone containing 0.4% by weight of an alkylphenol/ethylene oxide condensate available under the trade mark TRITON X-155.
(§3) These acetone solutions are diluted with water and the resulting formulations applied at dosage levels corresponding to 15 g, 30 g, 60 g, 120 g or 240 g of active material per hectare in a volume equivalent to 900 liters per hectare. In these tests untreated sown soil is used as control. The herbicidal effects of the test compounds are assessed visually three weeks after spraying the soil and are recorded an a 0 to 100 scale. A rating 0 indicates growth as untreated control, a rating 100 indicates death. An increase of 10 unit an the linear scale approximates to a 10% increase in the level of effect. The results of the assessment are set out in Tables 1 to 4.

[2] = test system: Triticum aestivum variety “Kanzler”; test: Pre-emergence test, selectivity; details: 3 weeks after treatment, rating 0-100 (100=death), Table 4
Description: as §1, §2, §3

VIOAR = test: Pre-emergence test, weed control; details: 3 weeks after treatment, rating 0-100 (100=death), Table 3
Description: as §1, §2, §3

PAPRH = test: Pre-emergence test, weed control; details: 3 weeks after treatment, rating 0-100 (100=death), Table 3
Description: as §1, §2, §3

Setaria viridis = test: Pre-emergence test, weed control; details: 3 weeks after treatment, rating 0-100 (100=death), Table 3
Description: as §1, §2
(§4) In these tests untreated sown soil is used as control. The herbicidal effects of the test compounds are assessed visually three weeks after spraying the soil and are recorded an a 0 to 100 scale. A rating 0 indicates growth as untreated control, a rating 100 indicates death. An increase of 10 unit an the linear scale approximates to a 10% increase in the level of effect. The results of the assessment are set out in Tables 1 to 4.

Apera spica-venti = test: Pre-emergence test, weed control; details: 3 weeks after treatment, rating 0-100 (100=death), Table 3
Description: as §1, §2, §4

Lolium perenne = test: Pre-emergence test, weed control; details: 3 weeks after treatment, rating 0-100 (100=death), Table 3
Description: as §1, §2, §4

Veronica persica = test: Pre-emergence test, weed control; details: 3 weeks after treatment, rating 0-100 (100=death), Table 3
Description: as §1, §2, §4

Alopecurus myosuroides = test: Pre-emergence test, weed control; details: 3 weeks after treatment, rating 0-100 (100=death), Table 3
Description: as §1, §2, §4

Poa annua = test: Pre-emergence test, weed control; details: 3 weeks after treatment, rating 0-100 (100=death), Table 3
Description: as §1, §2, §4

Stellaria media = test: Pre-emergence test, weed control; details: 3 weeks after treatment, rating 0-100 (100=death), Table 3
Description: as §1, §2, §4

Lamium purpureum = test: Pre-emergence test, weed control; details: 3 weeks after treatment, rating 0-100 (100=death), Table 3
Description: as §1, §2, §4

Galium aparine = test: Pre-emergence test, weed control; details: 3 weeks after treatment, rating 0-100 (100=death), Table 3
Description: as §1, §2, §4

Matricaria inodora = test: Pre-emergence test, weed control; details: 3 weeks after treatment, rating 0-100 (100=death), Table 3
Description: as §1, §2, §4

wheat = test: Pre-emergence test, tolerance in wheat; details: pre-emergence
Description: as §1, §2, §3

[3] = test system: grasses and broadleaf weeds; test: Pre-emergence test, overall weed control
Description: as §1, §2, §3

Structure (SMILES): FC(F)(F)c1ccc(-c2nccc(Oc3ccnc(Cl)c3)n2)cc1 [CTP, 4-(2-chloropyrid-4-yloxy)-2-(4-trifluoromethyl-phenyl)pyrimidine]
- TRZAWM rating (Selectivity) ([1]; 0.060 kg/ha): 1
- TRZAWM rating (Selectivity) ([1]; 0.120 kg/ha): 2
- TRZAWM rating (Selectivity) ([1]; 0.240 kg/ha): 5
- TRZAWK rating (Selectivity) ([2]; 0.120 kg/ha): 1
- TRZAWK rating (Selectivity) ([2]; 0.240 kg/ha): 5
- VIOAR weed control rating (VIOAR; 0.030 kg/ha): 99
- VIOAR weed control rating (VIOAR; 0.060 kg/ha): 100
- VIOAR weed control rating (VIOAR; 0.120 kg/ha): 100
- VIOAR weed control rating (VIOAR; 0.240 kg/ha): 100
- PAPRH weed control rating (PAPRH; 0.030 kg/ha): 100
- PAPRH weed control rating (PAPRH; 0.060 kg/ha): 100
- PAPRH weed control rating (PAPRH; 0.120 kg/ha): 100
- PAPRH weed control rating (PAPRH; 0.240 kg/ha): 100
- SETVI weed control rating (Setaria viridis; 0.030 kg/ha): 98
- SETVI weed control rating (Setaria viridis; 0.060 kg/ha): 100
- SETVI weed control rating (Setaria viridis; 0.120 kg/ha): 100
- SETVI weed control rating (Setaria viridis; 0.240 kg/ha): 100
- APESV weed control rating (Apera spica-venti; 0.030 kg/ha): 100
- APESV weed control rating (Apera spica-venti; 0.060 kg/ha): 100
- APESV weed control rating (Apera spica-venti; 0.120 kg/ha): 100
- APESV weed control rating (Apera spica-venti; 0.240 kg/ha): 100
- LOLPE weed control rating (Lolium perenne; 0.030 kg/ha): 93
- LOLPE weed control rating (Lolium perenne; 0.060 kg/ha): 95
- LOLPE weed control rating (Lolium perenne; 0.120 kg/ha): 98
- LOLPE weed control rating (Lolium perenne; 0.240 kg/ha): 100
- VERPE weed control rating (Veronica persica; 0.030 kg/ha): 100
- VERPE weed control rating (Veronica persica; 0.060 kg/ha): 100
- VERPE weed control rating (Veronica persica; 0.120 kg/ha): 100
- VERPE weed control rating (Veronica persica; 0.240 kg/ha): 100
- ALOMY weed control rating (Alopecurus myosuroides; 0.030 kg/ha): 15
- ALOMY weed control rating (Alopecurus myosuroides; 0.060 kg/ha): 35
- ALOMY weed control rating (Alopecurus myosuroides; 0.120 kg/ha): 99
- ALOMY weed control rating (Alopecurus myosuroides; 0.240 kg/ha): 100
- POAAN weed control rating (Poa annua; 0.030 kg/ha): 100
- POAAN weed control rating (Poa annua; 0.060 kg/ha): 100
- POAAN weed control rating (Poa annua; 0.120 kg/ha): 100
- POAAN weed control rating (Poa annua; 0.240 kg/ha): 100
- STEME weed control rating (Stellaria media; 0.030 kg/ha): 80
- STEME weed control rating (Stellaria media; 0.060 kg/ha): 100
- STEME weed control rating (Stellaria media; 0.120 kg/ha): 100
- STEME weed control rating (Stellaria media; 0.240 kg/ha): 100
- LAMPU weed control rating (Lamium purpureum; 0.030 kg/ha): 90
- LAMPU weed control rating (Lamium purpureum; 0.060 kg/ha): 100
- LAMPU weed control rating (Lamium purpureum; 0.120 kg/ha): 100
- LAMPU weed control rating (Lamium purpureum; 0.240 kg/ha): 100
- GALAP weed control rating (Galium aparine; 0.030 kg/ha): 10
- GALAP weed control rating (Galium aparine; 0.060 kg/ha): 65
- GALAP weed control rating (Galium aparine; 0.120 kg/ha): 93
- GALAP weed control rating (Galium aparine; 0.240 kg/ha): 95
- MATIN weed control rating (Matricaria inodora; 0.030 kg/ha): 98
- MATIN weed control rating (Matricaria inodora; 0.060 kg/ha): 99
- MATIN weed control rating (Matricaria inodora; 0.120 kg/ha): 99
- MATIN weed control rating (Matricaria inodora; 0.240 kg/ha): 100
- maximum tolerated dose in wheat / dose at which sufficiently selective in wheat (wheat): 240 g/ha
- dose at which complete control of all the grasses and broadleaf weeds was achieved [3]: 120 g/ha

— US7008905B2, “Method of combating undesired plant growth on cereals” (BASF Aktiengesellschaft, priority 2000, dated 2006)
